Data published in patent US20250049926A1, “PHARMACEUTICAL COMPOSITIONS COMPRISING MODIFIED BETACYCLODEXTRINS” (priority 2021, published 2025).

Experiment: Solubility measurement of saturated solutions by HPLC at room temperature (0 h and 24 h)
Assay type: physicochemical
Conditions: for solubility at 0 h / solubility at 24 h: thermodynamic from solid
Protocol: The vial contents are prepared starting with 2.5 mg of the compound of formula (I). The primary excipient is added followed by any further excipient and then the buffered water to a total volume of 500 μL. All components are mixed in a vortex mixer for ca. 5 minutes. If everything is dissolved an additional 2.5 mg of the compound of formula (I) is added and vortexed again for ca. 5 minutes. This is repeated until a saturated solution (suspension) is obtained.
The solubility in vial 1 is measured immediately as described below.
To measure solubility 400 μl of the suspension are taken and placed in a centrifugation device above a 0.2 μm filter. Centrifugation is performed at 14,000 rpm for 10 minutes and if necessary repeated for additional 10 minutes. The filter is removed from the vial and 100 μL is taken and diluted with 400 μL high-performance liquid chromatography (HPLC) diluent solution (see below) or diluted with 900 μL HPLC diluent solution in the event 5 mg or more of the compound of formula (I) was used. The pH of the solution is measured. A further 100 μL of the vial solution is taken and diluted with 400 μL of HPLC diluent solution or diluted with 900 μL HPLC diluent solution in the event 5 mg or more of the compound of formula (I) was used. The assay of the solution versus control stock solution is measured by HPLC and the solubility is calculated as described below. The HPLC diluent solution is 0.1% trifluoroacetic acid (TFA) in acetonitrile (ACN) and water (1:1 v/v).
All solubility tests are performed at room temperature.
The HPLC method for assessing solubility is performed as follows:
The solubility of the compound of formula (I) is calculated according to the following formula:
[formula] • Solubility=solubility of compound of formula (I) (mg/mL) • A=peak area of the compound of the sample tested • a=value of constant “a” in Linear regression equation y=ax+b • b=value of constant “b” in Linear regression equation y=ax+b • n=dilution time • Formulations for stability assessment are prepared as follows: […]

[1] = buffered water with excipients, pH 2, aqueous with cosolvent or surfactant or cyclodextrin, CBS 30 mM pH 2.0, NaCl 3 mg/mL, SBE-beta-CD 40 mg/mL, pH exp 2.2

COc1cc(N2CCNCC2)ccc1Nc1ncc2c(n1)-n1ccc(C(=O)Nc3c(C)cccc3C)c1CC2 [compound of formula (I)]
effect of additional excipient on solubility with SBE-beta-CD (Kollidon 12 PF, Kolliphor P188, soybean lecithin): very small impact on solubility
effect of additional excipient on solubility with SBE-beta-CD (PEG 400, glycerol, propylene glycol and PEG 4000): do not increase the solubility
effect of additional excipient on solubility with SBE-beta-CD (addition of Tween 80): slightly improves solubility
effect of additional excipient on solubility with SBE-beta-CD (addition of carboxymethylcellulose sodium, solution sticky at 24 hours): decreases solubility
solubility at 0 h (buffered water with excipient (saturated solution), pH 4, aqueous buffer, CBS 30 mM pH 4.0, Ethanol 20 mg/mL, pH exp 4.1): 160 µg/mL
solubility at 24 h (buffered water with excipient (saturated solution), pH 4, aqueous buffer, CBS 30 mM pH 4.0, Ethanol 20 mg/mL, pH exp 4.2): 110 µg/mL
solubility at 0 h (buffered water with excipient (saturated solution), pH 4, aqueous buffer, CBS 30 mM pH 4.0, PEG 400 20 mg/mL, pH exp 4.1): 220 µg/mL
solubility at 24 h (buffered water with excipient (saturated solution), pH 4, aqueous buffer, CBS 30 mM pH 4.0, PEG 400 20 mg/mL, pH exp 4.3): 150 µg/mL
solubility at 0 h (buffered water with excipient (saturated solution), pH 4, aqueous with cosolvent or surfactant or cyclodextrin, CBS 30 mM pH 4.0, NaCl 3 mg/mL, HP-beta-CD 40 mg/mL, pH exp 4.10): 1670 µg/mL
solubility at 24 h (buffered water with excipient (saturated solution), pH 4, aqueous with cosolvent or surfactant or cyclodextrin, CBS 30 mM pH 4.0, NaCl 3 mg/mL, HP-beta-CD 40 mg/mL, pH exp 4.28): 980 µg/mL
solubility at 0 h (buffered water with excipient (saturated solution), pH 4, aqueous with cosolvent or surfactant or cyclodextrin, CBS 30 mM pH 4.0, NaCl 3 mg/mL, SBE-beta-CD 10 mg/mL, pH exp 4.1): 890 µg/mL
solubility at 24 h (buffered water with excipient (saturated solution), pH 4, aqueous with cosolvent or surfactant or cyclodextrin, CBS 30 mM pH 4.0, NaCl 3 mg/mL, SBE-beta-CD 10 mg/mL, pH exp 4.2): 1110 µg/mL
solubility at 0 h (buffered water with excipient (saturated solution), pH 4, aqueous with cosolvent or surfactant or cyclodextrin, CBS 30 mM pH 4.0, NaCl 3 mg/mL, SBE-beta-CD 25 mg/mL, pH exp 4.1): 1840 µg/mL
solubility at 24 h (buffered water with excipient (saturated solution), pH 4, aqueous with cosolvent or surfactant or cyclodextrin, CBS 30 mM pH 4.0, NaCl 3 mg/mL, SBE-beta-CD 25 mg/mL, pH exp 4.2): 2540 µg/mL
solubility at 0 h (buffered water with excipient (saturated solution), pH 4, aqueous with cosolvent or surfactant or cyclodextrin, CBS 30 mM pH 4.0, NaCl 3 mg/mL, SBE-beta-CD 40 mg/mL, pH exp 4.0): 2480 µg/mL
solubility at 24 h (buffered water with excipient (saturated solution), pH 4, aqueous with cosolvent or surfactant or cyclodextrin, CBS 30 mM pH 4.0, NaCl 3 mg/mL, SBE-beta-CD 40 mg/mL, pH exp 4.2): 3800 µg/mL
solubility at 0 h (buffered water with excipient (saturated solution), pH 4, aqueous with cosolvent or surfactant or cyclodextrin, CBS 30 mM pH 4.0, Ethanol 50 mg/mL, pH exp 4.2): 190 µg/mL
solubility at 24 h (buffered water with excipient (saturated solution), pH 4, aqueous with cosolvent or surfactant or cyclodextrin, CBS 30 mM pH 4.0, Ethanol 50 mg/mL, pH exp 4.3): 90 µg/mL
solubility at 0 h (buffered water with excipient (saturated solution), pH 4, aqueous with cosolvent or surfactant or cyclodextrin, CBS 30 mM pH 4.0, Ethanol 100 mg/mL, pH exp 4.2): 260 µg/mL
solubility at 24 h (buffered water with excipient (saturated solution), pH 4, aqueous with cosolvent or surfactant or cyclodextrin, CBS 30 mM pH 4.0, Ethanol 100 mg/mL, pH exp 4.4): 140 µg/mL
solubility at 0 h (buffered water with excipient (saturated solution), pH 4, aqueous with cosolvent or surfactant or cyclodextrin, CBS 30 mM pH 4.0, Glycerol 50 mg/mL, pH exp 4.1): 180 µg/mL
solubility at 24 h (buffered water with excipient (saturated solution), pH 4, aqueous with cosolvent or surfactant or cyclodextrin, CBS 30 mM pH 4.0, Glycerol 50 mg/mL, pH exp 4.3): 120 µg/mL
solubility at 0 h (buffered water with excipient (saturated solution), pH 4, aqueous with cosolvent or surfactant or cyclodextrin, CBS 30 mM pH 4.0, Glycerol 100 mg/mL, pH exp 4.1): 210 µg/mL
solubility at 24 h (buffered water with excipient (saturated solution), pH 4, aqueous with cosolvent or surfactant or cyclodextrin, CBS 30 mM pH 4.0, Glycerol 100 mg/mL, pH exp 4.3): 130 µg/mL
solubility at 0 h (buffered water with excipient (saturated solution), pH 4, aqueous with cosolvent or surfactant or cyclodextrin, CBS 30 mM pH 4.0, Glycerol 500 mg/mL, pH exp 4.6): 1060 µg/mL
solubility at 24 h (buffered water with excipient (saturated solution), pH 4, aqueous with cosolvent or surfactant or cyclodextrin, CBS 30 mM pH 4.0, Glycerol 500 mg/mL, pH exp 4.8): 260 µg/mL
solubility at 0 h (buffered water with excipient (saturated solution), pH 4, aqueous with cosolvent or surfactant or cyclodextrin, CBS 30 mM pH 4.0, PEG 100 mg/mL, pH exp 4.3): 600 µg/mL
solubility at 24 h (buffered water with excipient (saturated solution), pH 4, aqueous with cosolvent or surfactant or cyclodextrin, CBS 30 mM pH 4.0, PEG 100 mg/mL, pH exp 4.5): 400 µg/mL
solubility at 0 h (buffered water with excipient (saturated solution), pH 4, aqueous with cosolvent or surfactant or cyclodextrin, CBS 30 mM pH 4.0, PEG 400 50 mg/mL, pH exp 4.1): 340 µg/mL
solubility at 24 h (buffered water with excipient (saturated solution), pH 4, aqueous with cosolvent or surfactant or cyclodextrin, CBS 30 mM pH 4.0, PEG 400 50 mg/mL, pH exp 4.4): 230 µg/mL
solubility at 0 h (buffered water with excipient (saturated solution), pH 4, aqueous with cosolvent or surfactant or cyclodextrin, CBS 30 mM pH 4.0, PEG 400 500 mg/mL, pH exp 6.3): 4100 µg/mL
solubility at 24 h (buffered water with excipient (saturated solution), pH 4, aqueous with cosolvent or surfactant or cyclodextrin, CBS 30 mM pH 4.0, PEG 400 500 mg/mL, pH exp 6.4): ≥ 4550 µg/mL
solubility at 0 h (buffered water with excipient (saturated solution), pH 4, aqueous with cosolvent or surfactant or cyclodextrin, CBS 30 mM pH 4.0, PG 50 mg/mL, pH exp 4.1): 200 µg/mL
solubility at 24 h (buffered water with excipient (saturated solution), pH 4, aqueous with cosolvent or surfactant or cyclodextrin, CBS 30 mM pH 4.0, PG 50 mg/mL, pH exp 4.3): 110 µg/mL
solubility at 0 h (buffered water with excipient (saturated solution), pH 4, aqueous with cosolvent or surfactant or cyclodextrin, CBS 30 mM pH 4.0, PG 100 mg/mL, pH exp 4.1): 280 µg/mL
solubility at 24 h (buffered water with excipient (saturated solution), pH 4, aqueous with cosolvent or surfactant or cyclodextrin, CBS 30 mM pH 4.0, PG 100 mg/mL, pH exp 4.4): 150 µg/mL
solubility at 0 h (buffered water with excipient (saturated solution), pH 4, aqueous with cosolvent or surfactant or cyclodextrin, CBS 30 mM pH 4.0, PG 500 mg/mL, pH exp 5.4): 3740 µg/mL
solubility at 24 h (buffered water with excipient (saturated solution), pH 4, aqueous with cosolvent or surfactant or cyclodextrin, CBS 30 mM pH 4.0, PG 500 mg/mL, pH exp 5.3): 2200 µg/mL
solubility at 0 h (buffered water with excipient (saturated solution), pH 5, aqueous with cosolvent or surfactant or cyclodextrin, CBS 30 mM pH 5.0, NaCl 3 mg/mL, SBE-beta-CD 40 mg/mL, pH exp 5.0): 2240 µg/mL
solubility at 24 h (buffered water with excipient (saturated solution), pH 5, aqueous with cosolvent or surfactant or cyclodextrin, CBS 30 mM pH 5.0, NaCl 3 mg/mL, SBE-beta-CD 40 mg/mL, pH exp 5.3): 3520 µg/mL
solubility at 0 h (buffered water with excipient (saturated solution), pH 5.5, aqueous with cosolvent or surfactant or cyclodextrin, CBS 30 mM pH 5.5, NaCl 3 mg/mL, SBE-beta-CD 40 mg/mL, pH exp 5.5): 1630 µg/mL
solubility at 0 h [1]: 6590 µg/mL
solubility at 24 h [1]: 5470 µg/mL
solubility at 0 h (buffered water with excipients, pH 4, aqueous with cosolvent or surfactant or cyclodextrin, ABS (acetate) 30 mM pH 4.0, NaCl 3 mg/mL, SBE-beta-CD 40 mg/mL, pH exp 4.0): 2880 µg/mL
solubility at 24 h (buffered water with excipients, pH 4, aqueous with cosolvent or surfactant or cyclodextrin, ABS (acetate) 30 mM pH 4.0, NaCl 3 mg/mL, SBE-beta-CD 40 mg/mL, pH exp 4.6): 3720 µg/mL
solubility at 0 h (buffered water with excipients, pH 4, aqueous with cosolvent or surfactant or cyclodextrin, ASBS (aspartate) 30 mM pH 4.0, NaCl 3 mg/mL, SBE-beta-CD 40 mg/mL, pH exp 4.0): 2880 µg/mL
solubility at 24 h (buffered water with excipients, pH 4, aqueous with cosolvent or surfactant or cyclodextrin, ASBS (aspartate) 30 mM pH 4.0, NaCl 3 mg/mL, SBE-beta-CD 40 mg/mL, pH exp 4.6): 3720 µg/mL
solubility at 0 h (buffered water with excipients, pH 4, aqueous with cosolvent or surfactant or cyclodextrin, CBS 30 mM pH 4.0, NaCl 3 mg/mL, SBE-beta-CD 40 mg/mL + Glycerol 1 mg/mL, pH exp 4.1): 2400 µg/mL
solubility at 24 h (buffered water with excipients, pH 4, aqueous with cosolvent or surfactant or cyclodextrin, CBS 30 mM pH 4.0, NaCl 3 mg/mL, SBE-beta-CD 40 mg/mL + Glycerol 1 mg/mL, pH exp 4.3): 3720 µg/mL
solubility at 0 h (buffered water with excipients, pH 4, aqueous with cosolvent or surfactant or cyclodextrin, CBS 30 mM pH 4.0, NaCl 3 mg/mL, SBE-beta-CD 40 mg/mL + Glycerol 5 mg/mL, pH exp 4.2): 2320 µg/mL
solubility at 24 h (buffered water with excipients, pH 4, aqueous with cosolvent or surfactant or cyclodextrin, CBS 30 mM pH 4.0, NaCl 3 mg/mL, SBE-beta-CD 40 mg/mL + Glycerol 5 mg/mL, pH exp 4.3): 3710 µg/mL
solubility at 0 h (buffered water with excipients, pH 4, aqueous with cosolvent or surfactant or cyclodextrin, CBS 30 mM pH 4.0, NaCl 3 mg/mL, SBE-beta-CD 40 mg/mL + Glycerol 50 mg/mL, pH exp 4.1): 2330 µg/mL
solubility at 24 h (buffered water with excipients, pH 4, aqueous with cosolvent or surfactant or cyclodextrin, CBS 30 mM pH 4.0, NaCl 3 mg/mL, SBE-beta-CD 40 mg/mL + Glycerol 50 mg/mL, pH exp 4.2): 3570 µg/mL
solubility at 0 h (buffered water with excipients, pH 4, aqueous with cosolvent or surfactant or cyclodextrin, CBS 30 mM pH 4.0, NaCl 3 mg/mL, SBE-beta-CD 40 mg/mL + HPMC 5 mg/mL, pH exp 4.1): 2230 µg/mL
solubility at 24 h (buffered water with excipients, pH 4, aqueous with cosolvent or surfactant or cyclodextrin, CBS 30 mM pH 4.0, NaCl 3 mg/mL, SBE-beta-CD 40 mg/mL + HPMC 5 mg/mL, pH exp 4.3): 3530 µg/mL
